The values below are quoted from earlier work in US7064109B2, “Pharmaceutical composition based on macrolides for topical application in ophthalmology” (priority 2001, dated 2006).

The data set has as its system all sensitive microorganisms.

In the case of `CC[C@H]1OC(=O)[C@H](C)[C@@H](O[C@H]2C[C@@](C)(OC)[C@@H](O)[C@H](C)O2)[C@H](C)[C@@H](O[C@@H]2O[C@H](C)C[C@H](N(C)C)[C@H]2O)[C@](C)(O)C[C@@H](C)CN(C)[C@H](C)[C@@H](O)[C@]1(C)O` [azithromycin, N-methyl-11-aza-10-deoxo-10-dihydroerythromycin], the “minimum level for eliminating microorganisms” value (conjunctival level) is 0.25 µg/g. Also, where the note is “minimum concentration for therapeutic effectiveness in the eyes, all sensitive microorganisms”, the minimum inhibitory concentration is 0.5 µg/g.
